Measured values reported in ChEMBL document CHEMBL5303573, “Mapping human microbiome drug metabolism by gut bacteria and their genes” (Nature, 2019).

Assays:
[1] = The drug is tested on Bacteroides finegoldii strain: DSM17565 for biotransformation. The drug concentrations were measured before and after a 12-h incubation by liquid-chromatography-coupled mass spectrometry (LC–MS); conditions: 2 µM
[2] = The drug is tested on Bifidobacterium ruminantium strain: fecal isolate for biotransformation. The drug concentrations were measured before and after a 12-h incubation by liquid-chromatography-coupled mass spectrometry (LC–MS); conditions: 2 µM
[3] = The drug is tested on Dorea formicigenerans strain: ATCC27755 for biotransformation. The drug concentrations were measured before and after a 12-h incubation by liquid-chromatography-coupled mass spectrometry (LC–MS); conditions: 2 µM
[4] = The drug is tested on Anaerococcus hydrogenalis strain: DSM7454 for biotransformation. The drug concentrations were measured before and after a 12-h incubation by liquid-chromatography-coupled mass spectrometry (LC–MS); conditions: 2 µM
[5] = The drug is tested on Bacteroides sp. WH2 strain: WH2 for biotransformation. The drug concentrations were measured before and after a 12-h incubation by liquid-chromatography-coupled mass spectrometry (LC–MS); conditions: bacteroides sp. wh2, 12 h, 2 µM
[6] = The drug is tested on Collinsella intestinalis strain: DSM13280 for biotransformation. The drug concentrations were measured before and after a 12-h incubation by liquid-chromatography-coupled mass spectrometry (LC–MS); conditions: 2 µM
[7] = bacteroides fragilis, 12 h, 2 µM
Description: The drug is tested on Bacteroides fragilis strain: DS-208 for biotransformation. The drug concentrations were measured before and after a 12-h incubation by liquid-chromatography-coupled mass spectrometry (LC–MS)

[8] = akkermansia muciniphila, 12 h, 2 µM
Description: The drug is tested on Akkermansia muciniphila strain: ATCC BAA-835 for biotransformation. The drug concentrations were measured before and after a 12-h incubation by liquid-chromatography-coupled mass spectrometry (LC–MS)

[9] = The drug is tested on Providencia rettgeri strain: DSM1131 for biotransformation. The drug concentrations were measured before and after a 12-h incubation by liquid-chromatography-coupled mass spectrometry (LC–MS); assay type: ADME; parameters: dose 2 uM, timepoint 0 vs 12 hours; conditions: 2 µM
[10] = The drug is tested on Bacteroides coprophilus strain: DSM18228 for biotransformation. The drug concentrations were measured before and after a 12-h incubation by liquid-chromatography-coupled mass spectrometry (LC–MS); conditions: 2 µM
[11] = The drug is tested on Bacteroides caccae strain: ATCC43185 for biotransformation. The drug concentrations were measured before and after a 12-h incubation by liquid-chromatography-coupled mass spectrometry (LC–MS); conditions: 2 µM
[12] = The drug is tested on Bacteroides vulgatus strain: ATCC8482 for biotransformation. The drug concentrations were measured before and after a 12-h incubation by liquid-chromatography-coupled mass spectrometry (LC–MS); conditions: phocaeicola vulgatus, 2 µM
[13] = bacteroides intestinalis, 12 h, 2 µM
Description: The drug is tested on Bacteroides intestinalis strain: DSM17393 for biotransformation. The drug concentrations were measured before and after a 12-h incubation by liquid-chromatography-coupled mass spectrometry (LC–MS)

[14] = The drug is tested on Bacteroides uniformis strain: ATCC8492 for biotransformation. The drug concentrations were measured before and after a 12-h incubation by liquid-chromatography-coupled mass spectrometry (LC–MS); conditions: 2 µM
[15] = The drug is tested on Odoribacter splanchnicus strain: fecal isolate for biotransformation. The drug concentrations were measured before and after a 12-h incubation by liquid-chromatography-coupled mass spectrometry (LC–MS); conditions: 2 µM
[16] = parabacteroides johnsonii, 12 h, 2 µM
Description: The drug is tested on Parabacteroides johnsonii strain: DSM18315 for biotransformation. The drug concentrations were measured before and after a 12-h incubation by liquid-chromatography-coupled mass spectrometry (LC–MS)

[17] = The drug is tested on Bacteroides xylanisolvens strain: DSM18836 for biotransformation. The drug concentrations were measured before and after a 12-h incubation by liquid-chromatography-coupled mass spectrometry (LC–MS); conditions: 2 µM
[18] = The drug is tested on Providencia stuartii strain: ATCC25827 for biotransformation. The drug concentrations were measured before and after a 12-h incubation by liquid-chromatography-coupled mass spectrometry (LC–MS); conditions: 2 µM
[19] = The drug is tested on Bacteroides fragilis strain: HMW615 for biotransformation. The drug concentrations were measured before and after a 12-h incubation by liquid-chromatography-coupled mass spectrometry (LC–MS); conditions: 2 µM
[20] = The drug is tested on Ruminococcus torques strain: ATCC27756 for biotransformation. The drug concentrations were measured before and after a 12-h incubation by liquid-chromatography-coupled mass spectrometry (LC–MS); assay type: ADME; parameters: dose 2 uM, timepoint 0 vs 12 hours; conditions: 2 µM

SMILES | Bacterial Biotransformation [1] | Bacterial Biotransformation [2] | Bacterial Biotransformation [3] | Bacterial Biotransformation [4] | Bacterial Biotransformation [5] | Bacterial Biotransformation [6] | Bacterial Biotransformation [7] | Bacterial Biotransformation [8] | Bacterial Biotransformation [9] | Bacterial Biotransformation [10] | Bacterial Biotransformation [11] | Bacterial Biotransformation [12] | Bacterial Biotransformation [13] | Bacterial Biotransformation [14] | Bacterial Biotransformation [15] | Bacterial Biotransformation [16] | Bacterial Biotransformation [17] | Bacterial Biotransformation [18] | Bacterial Biotransformation [19] | Bacterial Biotransformation [20]
C#C[C@]1(O)CC[C@H]2[C@@H]3CCC4=CC(=O)CC[C@@H]4[C@H]3CC[C@@]21CC [LEVONORGESTREL] | Compound NOT metabolized | Compound NOT metabolized | Compound NOT metabolized | Compound NOT metabolized | Compound metabolized | Compound NOT metabolized | Compound metabolized | Compound NOT metabolized | Compound NOT metabolized | Compound NOT metabolized | Compound metabolized | Compound metabolized | Compound NOT metabolized | Compound metabolized | Compound metabolized | Compound metabolized | Compound metabolized | Compound NOT metabolized | Compound metabolized | –
CCN(CC)C(=O)C1(c2ccccc2)CC1CN (configuration not stated) | Compound NOT metabolized | Compound NOT metabolized | Compound NOT metabolized | Compound NOT metabolized | Compound NOT metabolized | Compound NOT metabolized | Compound NOT metabolized | Compound NOT metabolized | Compound NOT metabolized | Compound NOT metabolized | Compound NOT metabolized | Compound NOT metabolized | Compound NOT metabolized | – | Compound NOT metabolized | Compound NOT metabolized | Compound NOT metabolized | Compound NOT metabolized | Compound NOT metabolized | Compound NOT metabolized
COc1ccc2c(c1)c(CC(=O)O)c(C)n2C(=O)c1ccc(Cl)cc1 [INDOMETHACIN] | Compound metabolized | Compound NOT metabolized | Compound NOT metabolized | Compound NOT metabolized | Compound metabolized | Compound NOT metabolized | Compound metabolized | Compound metabolized | Compound NOT metabolized | Compound metabolized | Compound metabolized | Compound metabolized | Compound metabolized | Compound metabolized | Compound metabolized | Compound metabolized | Compound metabolized | Compound NOT metabolized | Compound NOT metabolized | Compound NOT metabolized
CN1CCc2c(c3ccccc3n2Cc2ccccc2)C1.CN1CCc2c(c3ccccc3n2Cc2ccccc2)C1.O=S(=O)(O)c1cccc2c(S(=O)(=O)O)cccc12 | Compound NOT metabolized | Compound NOT metabolized | Compound NOT metabolized | Compound NOT metabolized | Compound NOT metabolized | Compound NOT metabolized | Compound NOT metabolized | Compound NOT metabolized | Compound NOT metabolized | Compound NOT metabolized | Compound NOT metabolized | Compound NOT metabolized | Compound NOT metabolized | Compound NOT metabolized | Compound NOT metabolized | Compound NOT metabolized | Compound NOT metabolized | Compound NOT metabolized | Compound NOT metabolized | Compound NOT metabolized
COC(=O)C1=C(C)NC(C)=C(C(=O)OC(C)C)C1c1cccc2nonc12 (configuration not stated) [ISRADIPINE] | Compound NOT metabolized | Compound NOT metabolized | Compound NOT metabolized | – | – | Compound NOT metabolized | Compound NOT metabolized | Compound NOT metabolized | Compound NOT metabolized | Compound NOT metabolized | – | Compound NOT metabolized | Compound NOT metabolized | Compound NOT metabolized | Compound NOT metabolized | Compound NOT metabolized | Compound NOT metabolized | Compound NOT metabolized | Compound NOT metabolized | Compound NOT metabolized
Fc1ccc([C@@H]2CCNC[C@H]2COc2ccc3c(c2)OCO3)cc1 [PAROXETINE] | Compound metabolized | Compound NOT metabolized | Compound NOT metabolized | Compound metabolized | Compound NOT metabolized | Compound NOT metabolized | Compound NOT metabolized | Compound NOT metabolized | Compound NOT metabolized | Compound NOT metabolized | Compound NOT metabolized | Compound NOT metabolized | Compound NOT metabolized | Compound NOT metabolized | Compound NOT metabolized | Compound metabolized | Compound NOT metabolized | Compound NOT metabolized | Compound NOT metabolized | Compound NOT metabolized
COc1ccccc1OCC(O)COC(N)=O (configuration not stated) [METHOCARBAMOL] | Compound NOT metabolized | Compound NOT metabolized | Compound NOT metabolized | – | Compound NOT metabolized | Compound NOT metabolized | Compound NOT metabolized | Compound NOT metabolized | Compound NOT metabolized | Compound NOT metabolized | Compound NOT metabolized | Compound NOT metabolized | Compound NOT metabolized | Compound NOT metabolized | Compound NOT metabolized | Compound NOT metabolized | Compound NOT metabolized | Compound NOT metabolized | Compound NOT metabolized | Compound NOT metabolized
Cc1cc2c(cc1S(N)(=O)=O)S(=O)(=O)CCC2 | – | Compound NOT metabolized | – | Compound NOT metabolized | Compound NOT metabolized | Compound NOT metabolized | Compound NOT metabolized | Compound NOT metabolized | Compound NOT metabolized | Compound NOT metabolized | Compound NOT metabolized | Compound NOT metabolized | Compound NOT metabolized | Compound NOT metabolized | Compound NOT metabolized | Compound NOT metabolized | Compound NOT metabolized | Compound NOT metabolized | Compound NOT metabolized | Compound NOT metabolized
